Data: patent US20060069132A1, “Azolecarboxamide herbicides” (priority 2004, published 2006)

Assays:
[1] = test system: velvetleaf; test: Test B pre-/postemergence herbicide test; assay type: in vivo, Abutilon theophrasti
Outline: (§1)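 Pre: seeds sown, then sprayed. Post: 1–4-leaf plants (2–18 cm) sprayed at the same time. Paddy: flooded, treated at 2-leaf stage. Formulation: non-phytotoxic solvent with surfactant. Greenhouse 13–15 days; visual 0–100 score relative to controls.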

[2] = test system: barnyardgrass; test: Test B flooded paddy test; assay type: in vivo, Echinochloa crus-galli; conditions: 1000 g ai/ha, scale 0 to 100 (0 no effect, 100 complete control)
Outline: (§2)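 Visual control ratings, 0–100 versus untreated controls, taken after 13 to 15 days in the greenhouse. Blackgrass received a postemergence spray at the 1- to 4-leaf stage (2–18 cm); ducksalad, umbrella sedge and barnyardgrass were flooded-paddy treated at 2 leaves.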

[3] = test system: pigweed; test: Test B pre-/postemergence herbicide test; assay type: in vivo, Amaranthus retroflexus
Outline: as §1

[4] = test system: giant foxtail; test: Test B pre-/postemergence herbicide test; assay type: in vivo, Setaria faberi
Outline: as §1

[5] = test system: large crabgrass; test: Test B pre-/postemergence herbicide test; assay type: in vivo, Digitaria sanguinalis
Outline: as §1

[6] = test system: rice; test: Test B flooded paddy test; assay type: in vivo, Oryza sativa; conditions: 1000 g ai/ha, scale 0 to 100 (0 no effect, 100 complete control)
Outline: (§3)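 Plants grow to 1- to 4-leaf stage (2–18 cm) for postemergence spraying, or to 2-leaf stage for the paddy test. Formulated compound is applied. Greenhouse holding lasts 13–15 days. Response is scored visually relative to controls, 0 no effect to 100 complete control; a dash means no result.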

[7] = test system: barnyardgrass; test: Test B pre-/postemergence herbicide test; assay type: in vivo, Echinochloa crus-galli
Outline: (§4)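 Response was scored visually 13 to 15 days after treatment against untreated greenhouse controls, 0 meaning no effect and 100 complete control. Formulations (solvent mixture plus surfactant) went onto soil after planting, onto foliage of 1- to 4-leaf plants, and onto 2-leaf plants in a flooded paddy set including rice and barnyardgrass.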

[8] = test system: lambsquarters; test: Test B pre-/postemergence herbicide test; assay type: in vivo, Chenopodium album
Outline: as §1

[9] = test system: Surinam grass; test: Test B pre-/postemergence herbicide test; assay type: in vivo, Urochloa decumbens
Outline: as §1

[10] = test system: morningglory; test: Test B pre-/postemergence herbicide test; assay type: in vivo, Ipomoea coccinea
Outline: as §4

[11] = test system: wild oat; test: Test B postemergence herbicide test; assay type: in vivo, Avena fatua
Outline: as §3

[12] = test system: corn; test: Test B pre-/postemergence herbicide test; assay type: in vivo, Zea mays
Outline: as §1

[13] = test system: wheat; test: Test B postemergence herbicide test; assay type: in vivo, Triticum aestivum; design: key to Wheat plant response rating: 0 = no effect, 100 = complete control
Outline: as §3

[14] = test system: cocklebur; test: Test B pre-/postemergence herbicide test; assay type: in vivo, Xanthium strumarium
Outline: as §4

[15] = test system: ducksalad; test: Test B flooded paddy test; assay type: in vivo, Heteranthera limosa; conditions: 1000 g ai/ha, scale 0 to 100 (0 no effect, 100 complete control)
Outline: as §2

[16] = 125 g ai/ha; visual rating, scale 0 (no effect) to 100 (complete control); postemergence
[17] = 500 g ai/ha; visual rating, 0 = no effect, 100 = complete control; preemergence
[18] = postemergence, 500 g ai/ha; scale 0 to 100, 0 is no effect, 100 is complete control
[19] = 125 g ai/ha; 0 = no effect, 100 = complete control; preemergence
[20] = 125 g ai/ha; 0 is no effect, 100 is complete control; preemergence
[21] = postemergence, 125 g ai/ha; visual rating, scale 0 (no effect) to 100 (complete control)

Compound: CCOC(=O)c1cccc(NC(=O)c2cc(C3(C)CC3)nn2CC)c1 [Compound 295]
- Velvetleaf plant response rating [1, 16]: 70
- Plant response rating, Velvetleaf [1, 17]: 60
- Velvetleaf plant response rating [1, 18]: 100
- Barnyardgrass plant response rating [2]: 60
- Pigweed plant response rating (0 to 100 scale) [3, 19]: 0
- Pigweed plant response rating [3, 16]: 100
- Pigweed plant response rating [3, 18]: 100
- Foxtail, Giant plant response rating (0 to 100 scale) [4, 19]: 10
- Foxtail, Giant plant response rating [4, 16]: 60
- Plant response rating, Foxtail, Giant [4, 17]: 70
- Foxtail, Giant plant response rating [4, 18]: 70
- Crabgrass, Large plant response rating (0 to 100 scale) [5, 19]: 10
- Crabgrass, Large plant response rating [5, 16]: 30
- Plant response rating, Crabgrass, Large [5, 17]: 80
- Crabgrass, Large plant response rating [5, 18]: 60
- Rice plant response rating [6]: 50
- Barnyardgrass plant response rating (0 to 100 scale) [7, 19]: 10
- Barnyardgrass plant response rating [7, 16]: 30
- Plant response rating, Barnyardgrass [7, 17]: 20
- Barnyardgrass plant response rating [7, 18]: 50
- Lambsquarters plant response rating (0 to 100 scale) [8, 19]: 0
- Lambsquarters plant response rating [8, 16]: 40
- Lambsquarters plant response rating [8, 18]: 60
- Surinam Grass plant response rating (0 to 100 scale) [9, 19]: 0
- Surinam Grass plant response rating [9, 16]: 50
- Plant response rating, Surinam Grass [9, 17]: 20
- Surinam Grass plant response rating [9, 18]: 60
- Morningglory plant response rating (0 to 100 scale) [10, 19]: 0
- Morningglory plant response rating [10, 16]: 50
- Plant response rating, Morningglory [10, 17]: 20
- Morningglory plant response rating [10, 18]: 100
- Oat, Wild plant response rating [11, 16]: 40
- Oat, Wild plant response rating [11, 18]: 50
- Corn plant response rating (0 to 100 scale) [12, 19]: 0
- Corn plant response rating [12, 16]: 10
- Plant response rating, Corn [12, 17]: 10
- Corn plant response rating [12, 18]: 20
- Wheat plant response rating [13, 16]: 20
- Wheat plant response rating [13, 18]: 30
- Cocklebur plant response rating (0 to 100 scale) [14, 19]: 0
- Cocklebur plant response rating [14, 16]: 40
- Plant response rating, Cocklebur [14, 17]: 0
- Cocklebur plant response rating [14, 18]: 90
- Ducksalad plant response rating [15]: 70

Compound: CCN(CC)C(=O)c1cccc(NC(=O)c2cc(C(C)(C)C)nn2C)n1 [Compound 314]
- Plant response rating (0 to 100 scale), Velvetleaf [1, 20]: 20
- Velvetleaf plant response rating [1, 16]: 20
- Plant response rating, Velvetleaf [1, 17]: 100
- Velvetleaf plant response rating [1, 18]: 30
- Barnyardgrass plant response rating [2]: 30
- Plant response rating (0 to 100 scale), Pigweed [3, 20]: 90
- Pigweed plant response rating [3, 16]: 60
- Plant response rating, Pigweed [3, 17]: 100
- Pigweed plant response rating [3, 18]: 70
- Plant response rating (0 to 100 scale), Foxtail, Giant [4, 20]: 30
- Foxtail, Giant plant response rating [4, 16]: 20
- Plant response rating, Foxtail, Giant [4, 17]: 100
- Foxtail, Giant plant response rating [4, 18]: 20
- Plant response rating (0 to 100 scale), Crabgrass, Large [5, 20]: 20
- Crabgrass, Large plant response rating [5, 16]: 10
- Plant response rating, Crabgrass, Large [5, 17]: 30
- Crabgrass, Large plant response rating [5, 18]: 20
- Rice plant response rating [6]: 0
- Plant response rating (0 to 100 scale), Barnyardgrass [7, 20]: 10
- Barnyardgrass plant response rating [7, 16]: 10
- Plant response rating, Barnyardgrass [7, 17]: 90
- Barnyardgrass plant response rating [7, 18]: 30
- Plant response rating (0 to 100 scale), Lambsquarters [8, 20]: 20
- Lambsquarters plant response rating [8, 16]: 30
- Plant response rating, Lambsquarters [8, 17]: 80
- Lambsquarters plant response rating [8, 18]: 60
- Plant response rating (0 to 100 scale), Surinam Grass [9, 20]: 20
- Surinam Grass plant response rating [9, 16]: 20
- Plant response rating, Surinam Grass [9, 17]: 80
- Surinam Grass plant response rating [9, 18]: 20
- Plant response rating (0 to 100 scale), Morningglory [10, 20]: 0
- Morningglory plant response rating [10, 16]: 20
- Plant response rating, Morningglory [10, 17]: 20
- Morningglory plant response rating [10, 18]: 80
- Oat, Wild plant response rating [11, 16]: 10
- Oat, Wild plant response rating [11, 18]: 30
- Plant response rating (0 to 100 scale), Corn [12, 20]: 0
- Corn plant response rating [12, 16]: 10
- Plant response rating, Corn [12, 17]: 10
- Corn plant response rating [12, 18]: 20
- Wheat plant response rating [13, 16]: 0
- Wheat plant response rating [13, 18]: 10
- Plant response rating (0 to 100 scale), Cocklebur [14, 20]: 0
- Cocklebur plant response rating [14, 16]: 10
- Plant response rating, Cocklebur [14, 17]: 0
- Cocklebur plant response rating [14, 18]: 30
- Ducksalad plant response rating [15]: 0

Compound: C#CCNC(=O)c1cc(NC(=O)c2cc(C(C)(C)C)nn2CC)ccn1 [Compound 283]
- Velvetleaf plant response rating (0 to 100 scale) [1, 19]: 0
- Plant response rating, Velvetleaf [1, 17]: 0
- Velvetleaf plant response rating [1, 21]: 0
- Velvetleaf plant response rating [1, 18]: 0
- Barnyardgrass plant response rating [2]: 20
- Pigweed plant response rating (0 to 100 scale) [3, 19]: 0
- Plant response rating, Pigweed [3, 17]: 100
- Pigweed plant response rating [3, 21]: 0
- Pigweed plant response rating [3, 18]: 20
- Foxtail, Giant plant response rating (0 to 100 scale) [4, 19]: 0
- Plant response rating, Foxtail, Giant [4, 17]: 10
- Foxtail, Giant plant response rating [4, 21]: 0
- Foxtail, Giant plant response rating [4, 18]: 0
- Crabgrass, Large plant response rating (0 to 100 scale) [5, 19]: 0
- Plant response rating, Crabgrass, Large [5, 17]: 50
- Crabgrass, Large plant response rating [5, 21]: 0
- Crabgrass, Large plant response rating [5, 18]: 10
- Rice plant response rating [6]: 10
- Barnyardgrass plant response rating (0 to 100 scale) [7, 19]: 0
- Plant response rating, Barnyardgrass [7, 17]: 10
- Barnyardgrass plant response rating [7, 21]: 0
- Barnyardgrass plant response rating [7, 18]: 0
- Lambsquarters plant response rating (0 to 100 scale) [8, 19]: 0
- Plant response rating, Lambsquarters [8, 17]: 100
- Lambsquarters plant response rating [8, 21]: 0
- Lambsquarters plant response rating [8, 18]: 30
- Surinam Grass plant response rating (0 to 100 scale) [9, 19]: 0
- Plant response rating, Surinam Grass [9, 17]: 0
- Surinam Grass plant response rating [9, 21]: 0
- Surinam Grass plant response rating [9, 18]: 10
- Morningglory plant response rating (0 to 100 scale) [10, 19]: 0
- Plant response rating, Morningglory [10, 17]: 0
- Morningglory plant response rating [10, 21]: 0
- Morningglory plant response rating [10, 18]: 30
- Oat, Wild plant response rating [11, 21]: 0
- Oat, Wild plant response rating [11, 18]: 10
- Plant response rating, Corn [12, 17]: 0
- Corn plant response rating [12, 21]: 0
- Corn plant response rating [12, 18]: 10
- Wheat plant response rating [13, 21]: 20
- Wheat plant response rating [13, 18]: 20
- Cocklebur plant response rating (0 to 100 scale) [14, 19]: 0
- Plant response rating, Cocklebur [14, 17]: 0
- Cocklebur plant response rating [14, 21]: 0
- Cocklebur plant response rating [14, 18]: 0
- Ducksalad plant response rating [15]: 70
